Results on 26 compounds are retold here after patent US10030016B2 (Sunesis Pharmaceuticals, Inc., priority 2009, dated 2018).

The target in assay [1] is PDK1 (Homo sapiens (Human), UniProt O15530). In words: PDK1 kinase assay (coupled PDK1/AKT/FAM-crosstide assay, IMAP fluorescence polarization). In kind it is biochemical. Summed up:
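Coupled cascade: 0.75 nM PDK1 (51-359) → 10 nM AKT2 (140-467-PIFtide) → 100 nM FAM-crosstide. ATP 40 μM, 25° C, 30 min. IMAP FP (ex 485/em 530), 2 h binding. ΔmP vs conc, 4-param fit.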

Assay [2] concerns phospho-akt (Thr308) in PC-3 cells. In words: Inhibition of phospho-akt (Thr308) in PC-3 cells, MSD phospho-akt 308 ELISA kit. In kind it is cell-based. The conditions noted are these: Homo sapiens, 2 hours, no serum, read-out: EC50. Summed up:
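PC-3 cells were seeded overnight in growth medium with 10% FBS, then exposed to compound serially diluted threefold in serum-free medium for 2 hours. Lysates were captured overnight at 4 degrees on MSD plates and phospho-Akt Thr308 was detected electrochemiluminescently, against DMSO high and 5 μM wortmannin low controls.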

The mark [3] stands for this setting: inhibition of P308 Akt in PC-3 cells using MSD.
Where [4] appears, read: inhibition of phospo-PDK1 in vitro.
The mark [5] stands for this setting: inhibition of P308 Akt in PC-3 cells, MSD.

Structures can show the parent of a compound that is named as a salt. Where two headings read alike, the source gives them in different places.

Chain of PDK1 (O15530 51-359): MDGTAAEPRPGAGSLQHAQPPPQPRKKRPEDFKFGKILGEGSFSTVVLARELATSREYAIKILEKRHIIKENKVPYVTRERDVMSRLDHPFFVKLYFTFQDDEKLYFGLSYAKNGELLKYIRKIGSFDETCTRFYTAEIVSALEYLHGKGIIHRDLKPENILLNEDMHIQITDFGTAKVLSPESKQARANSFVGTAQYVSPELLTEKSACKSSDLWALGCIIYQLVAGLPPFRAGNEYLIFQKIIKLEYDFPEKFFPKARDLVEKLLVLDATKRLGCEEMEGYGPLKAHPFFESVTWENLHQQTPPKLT

Regarding `C[C@H](NC(=O)c1cc(C#N)cnc1NCc1ccc(-c2cnc(N)c(C(=O)NCCO)c2)cc1)c1ccc(F)cc1` [Example 204, (S)-2-amino-5-(4-((5-cyano-3-(1-(4-fluorophenyl)ethylcarbamoyl)pyridin-2-ylamino)methyl)phenyl)-N-(2-hydroxyethyl) nicotinamide], in assay [1] (inhibition of PDK1 in vitro), the half-maximal inhibitory concentration (IC50) is less than 0.1 µM. In assay [2] (setting [3]), the EC50 is less than 1 µM.
`O=C(NCc1ccc(F)c(F)c1)c1cccnc1NCc1ccc(-c2ccc3ncnc(NCC(F)(F)F)c3c2)s1` [Example 4.22, N-(3,4-difluorobenzyl)-2-(((5-(4-(2,2,2-trifluoroethylamino)quinazolin-6-yl)thiophen-2-yl)methyl)amino)nicotinamide]: the IC50 in assay [1] (setting [4]) was in the range of 0.1 to 1 µM. In assay [2] (setting [5]), the EC50 lay within 1 to 10 µM.
Taken in the same sequence, the figures for `CN(C)C(=O)c1cnc(NCc2ccc(-c3ccc4ncnc(N)c4c3)s2)c(C(=O)NCc2ccc(F)c(F)c2)c1` [Example 7.24.4, 2-({[5-(4-aminoquinazolin-6-yl)thiophen-2-yl]methyl}amino)-N^3-(3,4-difluorobenzyl)-N^5,N^5-dimethylpyridine-3,5-dicarboxamide] were less than 0.1 µM and less than 1 µM.
Consider `C[C@H](NC(=O)c1cc(C#N)cnc1NCc1ccc(-c2c[nH]nc2N)cc1)c1ccc(F)cc1` [Example 142, (S)-2-(4-(3-amino-1H-pyrazol-4-yl)benzylamino)-5-cyano-N-(1-(4-fluorophenyl)ethyl) nicotinamide], for which, in assay [1] (inhibition of PDK1 in vitro), the IC50 is more than 5 µM. The concentration giving a half-maximal response (EC50) in assay [2] (setting [3]) is 1 to 10 µM.
Consider `C[C@H](NC(=O)c1cccnc1NCc1ccc(-c2cnc3[nH]ncc3c2)cc1)c1ccc(F)cc1` [Example 392, N-[(S)-1-(4-Fluoro-phenyl)-ethyl]-2-[4-(1H-pyrazolo [3,4-b]pyridin-5-yl)-benzylamino]-nicotinamide], for which the IC50 in assay [1] (inhibition of PDK1 in vitro) is less than 0.1 µM. Further, the EC50 in assay [2] (setting [3]) was in the range of 1 to 10 µM.
Turning to `C[C@H](NC(=O)c1cc(C#N)cnc1NCc1ccc(-c2ccc3ncnc(N)c3c2)s1)c1ccc(F)c(F)c1` [Example 8.8.2], in assay [1] (setting [4]), the IC50 is less than 0.1 µM. In assay [2] (setting [5]), the half-maximal effective concentration (EC50) is less than 1 µM.
Consider `C[C@H](NC(=O)c1cccnc1NCc1ccc(-c2ccc3ncc4c(c3c2)n(C)c(=O)n4C)s1)c1ccc(F)cc1` [Example 2.17, (S)-2-(((5-(1,3-dimethyl-2-oxo-2,3-dihydro-1H-imidazo(4,5-c]quinolin-8-yl)thiophen-2-yl)methyl)amino)-N-(1-(4-fluoro-phenyl)ethyl)nicotinamide], for which the IC50 in assay [1] (setting [4]) is more than 5 µM. The EC50 in assay [2] (setting [5]) is more than 10 µM.
In assay [1] (inhibition of PDK1 in vitro), `C[C@H](NC(=O)c1cc(C#N)cnc1NCc1ccc(-c2cnc3[nH]ncc3c2)cc1)c1ccc(F)c(F)c1` [Example 395, 5-Cyano-N-[(S)-1-(3,4-difluoro-phenyl)-ethyl]-2-[4-(1H-pyrazolo[3,4-b]pyridin-5-yl)-benzylamino]-nicotinamide] returned a concentration for half-maximal inhibition (IC50) of less than 0.1 µM. Besides, in assay [2] (setting [3]), the EC50 was less than 1 µM.
`CCC(C)n1cc(-c2ccc(CNc3ncc(C(F)(F)F)cc3C(=O)Nc3ccc(F)cc3)cc2)c2c(N)ncnc21` (stereo not shown) [Example 441, 2-(4-(4-amino-7-sec-butyl-7H-pyrrolo[2,3-d]pyrimidin-5-yl)benzylamino)-N-(4-fluorophenyl)-5-(trifluoromethyl)nicotinamide]: the IC50 in assay [1] (setting [4]) was less than 0.1 µM. Also, the EC50 in assay [2] (setting [3]) was more than 10 µM.
In turn, `Nc1n[nH]c2ncc(-c3ccc(CNc4ncc(C(F)(F)F)cc4C(=O)NCc4ccc(Cl)c(F)c4)cc3)cc12` [Example 419, 2-(4-(3-amino-1H-pyrazolo [3,4-b]pyridin-5-yl)benzylamino)-N-(4-chloro-3-fluorobenzyl)-5-(trifluoromethyl)nicotinamide] showed an IC50 in assay [1] (inhibition of PDK1 in vitro) of less than 0.1 µM. Also, the EC50 in assay [2] (setting [3]) lay in the range of 1 to 10 µM.
`O=C(NCc1ccc(F)c(F)c1)c1cccnc1NCc1ccc(-c2cnc3[nH]ncc3c2)nc1` [Example 327] yielded an IC50 in assay [1] (inhibition of PDK1 in vitro) of less than 0.1 µM. In addition, the EC50 in assay [2] (setting [3]) fell in the range of 1 to 10 µM.
With `Nc1ncnc2ccc(-c3ccc(CNc4ncc(Br)nc4C(=O)NCc4ccc(F)c(F)c4)s3)cc12` [Ex. 10.2, 3-({[5-(4-aminoquinazolin-6-yl)thiophen-2-yl]methyl}amino)-6-bromo-N-(3,4-difluorobenzyl)pyrazine-2-carboxamide], the IC50 in assay [1] (setting [4]) was less than 0.1 µM. Besides, the EC50 in assay [2] (setting [5]) was in the range of 1 to 10 µM.
Consider `O=C(NCc1ccc(F)cc1)c1cccnc1NCc1ccc(-c2cnc3[nH]c(=O)[nH]c3c2)cc1` [Example 360, N-(4-fluorobenzyl)-2-(4-(2-oxo-2,3-dihydro-1H-imidazo [4,5-b]pyridin-6-yl)benzyl-amino)nicotinamide], for which the IC50 in assay [1] (inhibition of PDK1 in vitro) was less than 0.1 µM. Moreover, in assay [2] (setting [3]), the EC50 was less than 1 µM.
In turn, `CN(Cc1ccc(F)c(F)c1)C(=O)c1cccnc1NCc1ccc(-c2ccc3ncnc(N)c3c2)s1` [Example 3.13, 2-({[5-(4-aminoquinazolin-6-yl)thiophen-2-yl]methyl}amino)-N-(3,4-difluorobenzyl)-N-methylpyridine-3-carboxamide (TFA salt)] displayed an IC50 in assay [1] (setting [4]) of 0.1 to 1 µM. Moreover, the EC50 in assay [2] (setting [5]) is more than 10 µM.
`CC(C)Oc1cc(CNc2ncccc2C(=O)NCc2cccc(F)c2)cc(-c2c[nH]c3ncc(C(=O)NC4CC4)cc23)c1` [Example 4.1.4, N-cyclopropyl-3-{3-[({3-[(3-fluorobenzyl)carbamoyl]pyridin-2-yl}amino)methyl]-5-(propan-2-yloxy)phenyl}-1H-pyrrolo [2,3-b]pyridine-5-carboxamide] yielded an IC50 in assay [1] (setting [4]) of less than 0.1 µM. Besides, the EC50 in assay [2] (setting [5]) lay within 1 to 10 µM.
In assay [1] (inhibition of PDK1 in vitro), `C[C@H](NC(=O)c1cc(C#N)cnc1NCc1ccc(-c2cnc(N)c(O[C@H]3CCC[C@@H]3N)n2)cc1)c1ccc(F)cc1` [Example 168, 2-{4-[5-Amino-6-((1S,2S)-2-amino-cyclopentyloxy)-pyrazin-2-yl]-benzylamino}-5-cyano-N-[(S)-1-(4-fluoro-phenyl)-ethyl]-nicotinamide] showed a concentration for half-maximal inhibition (IC50) of less than 0.1 µM. In addition, the EC50 in assay [2] (setting [3]) was in the range of 1 to 10 µM.
For `CC[C@H](NC(=O)c1cccnc1NCc1ccc(-c2ccc3ncnc(N)c3c2)s1)c1ccc(F)cc1` [Example 3.43, (S)-2-((5-(4-aminoquinazolin-6-yl)thiophen-2-yl)methylamino)-N-(1-(4-fluorophenyl)propyl) nicotinamide (TFA salt)], the IC50 in assay [1] (setting [4]) was 0.1 to 1 µM. The EC50 in assay [2] (setting [5]) lay within 1 to 10 µM.
Consider `CNC(=O)c1cc(S(=O)(=O)NCCO)cnc1NCc1ccc(-c2ccc3ncnc(N)c3c2)s1` [Example 342], for which the IC50 in assay [1] (inhibition of PDK1 in vitro) was more than 5 µM. Also, the EC50 in assay [2] (setting [3]) is more than 10 µM.
Taken in the same sequence, the figures for `C[C@H](NC(=O)c1nc(C#N)cnc1N[C@H](CO)c1ccc(-c2cnc3[nH]nc(N)c3c2)cc1)c1ccc(F)c(F)c1` [Example 353, 3-((S)-1-(4-(3-amino-1H-pyrazolo[3,4-b]pyridin-5-yl)phenyl)-2-hydroxy-ethylamino)-6-cyano-N-((S)-1-(3,4-difluorophenyl)ethyl)pyrazine-2-carboxamide] were less than 0.1 µM and less than 1 µM.
On to `C[C@H](NC(=O)c1nc(C#N)cnc1NCc1ccc(-c2ccc3ncnc(N)c3c2)s1)c1ccc(F)c(F)c1` [Ex. 10.9, 3-({[5-(4-aminoquinazolin-6-yl)thiophen-2-yl]methyl}amino)-6-cyano-N-[(1S)-1-(3,4-difluorophenyl)ethyl] pyrazine-2-carboxamide], for which the IC50 in assay [1] (setting [4]) lay in the range of 0.1 to 1 µM. Further, in assay [2] (setting [5]), the EC50 was less than 1 µM.
In the same order, the values of `C[C@H](NC(=O)c1cccnc1NCCOc1ccc2c(c1)NC(=O)/C2=C\c1cnc[nH]1)c1ccc(F)c(F)c1` [Example 19.2, (S,Z)-2-(2-(3-((1H-imidazol-5-yl)methylene)-2-oxoindolin-6-yloxy)ethylamino)-N-(1-(3,4-difluorophenyl)ethyl)nicotinamide] are less than 0.1 µM and less than 1 µM.
In assay [1] (setting [4]), `N#Cc1cnc(NCc2ccc(-c3cnc4[nH]nc(N)c4c3)cc2)c(C(=O)NCc2cncc(F)c2)n1` [Example 26, 3-(4-(3-amino-1H-pyrazolo[3,4-b]pyridin-5-yl)benzylamino)-6-cyano-N-((5-fluoropyridin-3-yl)methyl)pyrazine-2-carboxamide] came in with an IC50 of less than 0.1 µM. Further, the EC50 in assay [2] (setting [5]) is less than 1 µM.
In assay [1] (inhibition of PDK1 in vitro), `Nc1ncc(-c2ccc(CNc3ncc(C(F)(F)F)cc3C(=O)Nc3ccc(F)cc3)cc2)nc1-c1cccc(O)c1` [Example 236, 2-{4-[5-Amino-6-(3-hydroxy-phenyl)-pyrazin-2-yl]-benzylamino}-N-(4-fluoro-phenyl)-5-trifluoromethyl-nicotinamide] registered an IC50 of less than 0.1 µM. In assay [2] (setting [3]), the EC50 fell in the range of 1 to 10 µM.
In the same order, the values of `C[C@H](NC(=O)c1cc(C#N)cnc1NCc1ccc(-c2cnc(N)c(CCCCN3CCOCC3)n2)cc1)c1ccc(F)cc1` [Example 89, 2-{4-[5-Amino-6-(4-morpholin-4-yl-butyl)-pyrazin-2-yl]-benzyl-amino}-5-cyano-N-[(S)-1-(4-fluoro-phenyl)-ethyl]-nicotinamide] are less than 0.1 µM and less than 1 µM.
In turn, `C[C@H](NC(=O)c1cn(-c2ccccc2)nc1NCc1ccc(-c2ccc3ncnc(N)c3c2)s1)c1ccc(F)c(F)c1` [Ex. 11.2] registered an IC50 in assay [1] (setting [4]) of 0.1 to 1 µM. Also, in assay [2] (setting [5]), the EC50 was more than 10 µM.
The compound `O=C(NCc1ccc(F)c(F)c1)c1cccnc1NCc1ccc(-c2cnc3[nH]ncc3c2)s1` [Example 2.32, 2-(((5-(1H-pyrazolo[3,4-b]pyridin-5-yl)thiophen-2-yl)methyl)amino)-N-(3,4-difluorobenzyl) nicotinamide] had a half-inhibitory concentration (IC50) in assay [1] (setting [4]) of less than 0.1 µM. In addition, in assay [2] (setting [5]), the EC50 lay in the range of 1 to 10 µM.
